# Measurements taken from patent publication EP0002051A1, “Use of butoxybenzylhyoscyamine bromide in pharmaceutical compositions against deafness and tinnitus” (Eisai Co., Ltd., priority 1977, dated 1979).
# What was measured:
# male and female rats = test: chronic toxicity, continuous administration for 25 weeks; format: in vivo
# Method: Toxicity of butoxybenzylhyoscyamine bromide in detail: • (A) The acute toxicity, LDSo(mg/kg), is as shown in table 1 [formula] • (B) The compound was administered in an amount of 3.2, 8.0 or 2o mg/kg per day to male and female rats conti- nously during 25 weeks to determine the chronic toxicity.
# hearing power [1] = test: clinical test: audiometry just after intravenous injection (30 minutes); format: in vivo; conditions: 5o patients
# Method: (§1) Among patients who came into the hospital during the period of from September 1976 to September 1977 while complaining of deafness or tinnitus, those meeting the following conditions were chosen.
# (§2) Butoxybenzylhyoscyamine bromide was administered to 74 patients meeting the above conditions.
# (§3) In principle, a mixture of 4 mg of butoxybenzylhyoscyamine bromide with 2o % glucose was intravenously injected at first, and then, two capsules, each containing 5 mg of butoxybenzylhyoscyamine bromide, was administered 3-times per day (namely, 6 capsules being administered as a whole per day). The administration of capsules was conducted for one week.
# (§4) • (a) The standard autiometry (125 - 8ooo Hz, air and bone condition) was carried out before the injection. • (b) The same test was conducted 3o minutes after the injection. In patients complaining of tinnitus, the change of the degree of tinnitus was examined. • (c) The audiometry was carried out on the 7th day from the start of the oral administration. If the patients felt changes of hearing power or tinnitus during this period, the audiometry was appropriately conducted. • (d) During the oral administraion period of 7 days, desease conditions such as (1) hearing power (2) tinnitus, (3) other ear symptoms and (4) side effects were recorded in examination cards.
# (§5) • 1. Change of hearing power just after injection (3o minutes: • With respect to 5o patients, the audiometry was carried out just after the intravenous injection of butoxybenzylhyoscyamine bromide (3o minutes after the injection) to obtain results shown in table 2. Sounds of 25o Hz, 1000 Hz and 8000 Hz were chosen as typical instances of sounds of the low-tone, medium-tone and high-tone regions, respectively, and changes of the hearing power to these sounds were examined. The change within a range of + 5 dB was judged as "no change" and the change exceeding 5 dB was judged as "improvement" or "worsening". [formula] As will be apparent from the results shown in table 2, the highest improvement was 2o dB (1ooo Hz) but in many cases, the improvement was up to 15 dB. The improvement was higher in the order of the low-tone region (18%), the high-tone region (12 %) and the mediom-tone region (8%) and the average improvement of the hearing power after the intravenous injection was about 13 %. • 2. Improvement of Tinnitus: With respect to 41 patients complaining of tinnitus, the change of degree of tinnitus was examined after one week's oral administration to obtain results shown belof in table 3. [formula] As will be apparent from the results shown in table 3, the agent was effective in 15 patients (36%), though the agent of the present invention was ineffective in 24 patients (59%) or the agent worsened the state in 2 patients (5%). • 3. Change of hearing power after administration: Changes of the hearing power were examined during a period of 1 year and three months at longest after one week's administration. With respect to cases where high improving effects were attained, the clinical history will be described.
# tinnitus = test: clinical test: change of degree of tinnitus after one week's oral administration; format: in vivo; conditions: 41 patients complaining of tinnitus
# Method: as §1, §2, §3, §4, §5
# hearing power [2] = test: clinical test: change of hearing power after administration (case histories, audiograms); format: in vivo, patients
# Method: as §1, §3, §4, §5
# [3] = rats, 3.2, 8.0 or 2o mg/kg per day
smiles,measurement,setting,value
"CCCCOc1ccc(C[N+]2(C)C3CCC2CC(OC(=O)C(CO)c2ccccc2)C3)cc1 (stereo not shown) [butoxybenzylhyoscyamine bromide, N-(p-n-butoxybenzyl)-hyoscyaminium bromide]",change in organs (chronic toxicity),male and female rats; [3],no substantial change was observed in any organ
same,tests of blood and urine (chronic toxicity),male and female rats; [3],particular changes or disorders were not observed at all
same,changes observed (chronic toxicity),"male and female rats; rats, daily administered amount 2o mg/kg","inactive motion, mydriasis, control of increase of the body weight, storage of a small quantity of abdominal dropsy and formation of false membranes on the liver and spleen"
same,improvement of hearing power in many cases,hearing power [1]; 3o minutes after intravenous injection of 4 mg,up to 15 dB
same,highest improvement of hearing power,"hearing power [1]; 3o minutes after intravenous injection of 4 mg, 1ooo Hz",2o
same,"improvement, low-tone region","hearing power [1]; 3o minutes after intravenous injection, 25o Hz, change exceeding 5 dB judged as improvement",18%
same,"improvement, medium-tone region","hearing power [1]; 3o minutes after intravenous injection, 1000 Hz, change exceeding 5 dB judged as improvement",8%
same,"improvement, high-tone region","hearing power [1]; 3o minutes after intravenous injection, 8000 Hz, change exceeding 5 dB judged as improvement",12%
same,average improvement of the hearing power after the intravenous injection,"hearing power [1]; average of low-, medium- and high-tone regions",about 13%
same,"tinnitus: effective, number of patients",tinnitus,15 patients
same,"tinnitus: effective, share of patients",tinnitus,36%
same,"tinnitus: ineffective, number of patients",tinnitus,24 patients
same,"tinnitus: ineffective, share of patients",tinnitus,59%
same,"tinnitus: state worsened, number of patients",tinnitus,2 patients
same,"tinnitus: state worsened, share of patients",tinnitus,5%
same,"tinnitus, Case 2",hearing power [2]; person with the improvement of the hearing power,Tinnitus disappeared
same,"hearing loss, Case 6","hearing power [2]; person, 3o minutes after intravenous injection",the hearing loss was extremely reduced
same,"hearing power after second 1 week oral administration, Case 4","hearing power [2]; person, at termination of the second oral administration",further improved in the low-tone region
same,"hearing power restored on the average, Case 4","hearing power [2]; person, fixed perceptive deafness, one intravenous injection then 1 week oral, after 3 weeks",about 1o
same,"hearing power restored at maximum, Case 4","hearing power [2]; person, fixed perceptive deafness, one intravenous injection then 1 week oral, after 3 weeks, 2 KHz",2o
same,"change of hearing power, Case 3","hearing power [2]; person, fixed sudden deafness of right ear, repeated intravenous injection",remarkably improved in the low-tone region
same,"hearing loss after about 1 month, Case 2","hearing power [2]; person, left ear, hearing loss about 5o dB before, one week oral administration with S.G.B.",1o
same,"hearing power after one week's administration, Case 2","hearing power [2]; person, left ear, hearing loss about 5o dB before, oral administration while conducting S.G.B.",returned to the level equal to the level at the first examination
same,"change of hearing power, Case 5","hearing power [2]; person, perceptive deafness of left ear, oral, 3 weeks, 6 capsules per day",gradually recovered but was not returned to the normal level
same,"change of hearing power, Case 1","hearing power [2]; person, perceptive deafness, six capsules of 5 mg per day",the improvement was observed in the low-tone region after the administration
